This note sets out measurements from US6066642A, “Dihydropyridine-, pyridine-, benzopyran-4-one- and triazoloquinazoline derivative, their preparation and their use as adenosine receptor antagonists” (priority 1998, dated 2000).

In general, Ki refers to a dissociation constant, usually derived from enzyme kinetics or from competition with a known ligand.

The target in one assay is T1, A2a receptors (Rattus norvegicus, UniProt P30543).
T1 construct: Displacement of specific [^3 H]; from tissue; host or cells: rat striatal membranes
T1 sequence (P30543 whole entry): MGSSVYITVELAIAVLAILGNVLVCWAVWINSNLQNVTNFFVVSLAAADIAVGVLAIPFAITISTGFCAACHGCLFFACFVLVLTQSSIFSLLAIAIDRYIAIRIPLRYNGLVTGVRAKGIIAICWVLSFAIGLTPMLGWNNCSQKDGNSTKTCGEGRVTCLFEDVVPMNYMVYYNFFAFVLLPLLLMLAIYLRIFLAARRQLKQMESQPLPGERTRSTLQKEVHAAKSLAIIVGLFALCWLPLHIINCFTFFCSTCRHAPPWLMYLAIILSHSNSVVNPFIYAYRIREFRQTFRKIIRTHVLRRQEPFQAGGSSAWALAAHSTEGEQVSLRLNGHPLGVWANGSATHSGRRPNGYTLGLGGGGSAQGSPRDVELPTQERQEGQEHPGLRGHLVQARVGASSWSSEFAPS
In words: radioligand binding, displacement of specific [3H]CGS 21680 binding in rat striatal membranes. Conditions: Table 3; [3H]CGS 21680, rat striatal membranes; read-out: Ki rA2a.
Experimental: ^b Displacement of specific [^3 H]
or as a percentage of specific binding displaced at 100 μM.
With `CCOc1cc(O)c2c(=O)c(OCC)c(-c3ccccc3)oc2c1` [Compound 3b, 3,7-Diethoxy-5-hydroxyflavone], the Ki was 63.8 ± 18.8 µM.

Staying with this assay, now noted: Table 9; 10^-4 M; read-out: % of specific binding displaced rA2A.
On to `COCCOC(=O)C1=C(C)NC(C)=C(C(=O)OC)C1C` (racemic) [Compound 53, 3-methyl,5-(2-methoxy)ethyl 2,4,6-trimethyl-1,4(R,S)-dihydropyridine-3,5-dicarboxylate], for which the inhibition at 100 µM came out at 19%.

Staying with this assay, now noted: Table 9; [3H]CGS 21680, rat striatal membranes; read-out: Ki rA2A.
Consider `CCOC(=O)C1=C(C)NC(C)=C(C(=O)OC)C1C` (racemic) [Compound 52, 3-Methyl-5-ethyl 2,4,6-trimethyl-1,4(R,S)-dihydropyridine-3,5-dicarboxylate], for which the Ki was over 100 µM.

For the molecule `CCOC(=O)C1=C(C)NC(C)=C(C(=O)OC)C1CC` (racemic) [Compound 56, 3-Methyl-5-ethyl-2,6-dimethyl-4-ethyl-1,4(R,S)-dihydropyridine-3,5-dicarboxylate], the Ki was determined as 9.56 ± 2.69 µM.

For the molecule `CCOC(=O)C1=C(C)NC(C)=C(C(=O)OC)C1CC(C)CCC=C(C)C` (racemic) [Compound 58], the Ki worked out at 23.1 µM.

As for `COC(=O)C1=C(C)NC(C)=C(C(=O)OCc2ccccc2)C1C` (racemic) [Compound 54, 3-methyl,5-benzyl 2,4,6-trimethyl-1,4(R,S)-dihydropyridine-3,5-dicarboxylate], the Ki came out at 9.72 µM.

In the case of `CCOC(=O)C1=C(C)NC(C)=C(C(=O)OC)C1c1ccc(OC)cc1` (racemic) [Compound 71, 3-methyl-5-ethyl-2,6-dimethyl-4-(4-methoxyphenyl)-1,4(R,S)-dihydropyridine-3,5-dicarboxylate], the Ki is 12.7 ± 3.8 µM.

In the case of `CCOC(=O)C1=C(C)NC(c2ccccc2)=C(C(=O)OCC)C1C` (racemic) [Compound 78, 3,5-diethyl-2,4-dimethyl-6-phenyl-1,4(R,S)-dihydropyridine-3,5-dicarboxylate], the Ki worked out at 35.9 µM.

In the case of `CCOC(=O)C1=C(C)NC(C)=C(C(=O)OC)C1CCc1ccccc1` (centres unmarked) [Compound 74], the Ki was found to be 6.71 ± 2.06 µM.

Take `CCOC(=O)C1=C(C)NC(C)=C(C(=O)OCCCSc2ccccc2)C1C` (centres unmarked) [Compound 55]: the Ki came to 7.1 µM.

Regarding `CCOC(=O)C1=C(C)NC(C)=C(C(=O)OC)C1c1ccc(O)c(OC)c1` (racemic) [Compound 72, 3-methyl-5-ethyl-2,6-dimethyl-4-(4-hydroxy,3-methoxyphenyl)-1,4(R,S)-dihydropyridine-3,5-dicarboxylate], the Ki is 56.8 ± 1.9 µM.

With `CCOC(=O)C1=C(C)NC(C)=C(C(=O)OC)C1c1ccccc1C(F)(F)F` (racemic) [Compound 68, 3-methyl-5-ethyl-2,6-dimethyl-4-(2-α,α,α-trifluoromethylphenyl)-1,4(R,S)-dihydropyridine-3,5-dicarboxylate], the Ki was found to be 20.7 µM.

As for `CCCCC1=C(C(=O)OCC)C(C)C(C(=O)OCC)=C(C)N1` (racemic) [Compound 77, 3,5-diethyl-2,4-dimethyl-6-butyl-1,4(R,S)-dihydropyridine-3,5-dicarboxylate], the Ki was 38 ± 10.6 µM.

`CCOC(=O)C1=C(C)NC(C)=C(C(=O)OCC)C1c1cccc([N+](=O)[O-])c1` [Compound 62]: the inhibition constant Ki stood at 18.2 µM.

Staying with this assay, now noted: Table 10; [3H]CGS 21680, rat striatal membranes; read-out: Ki rA2a.
Consider `CCOC(=O)c1c(C)nc(-c2ccccc2)c(C(=O)OCC)c1C` [Compound 81], for which the Ki was 28.4 µM.

The same assay, now with this note: Table 11; 10^-4 M; read-out: % inhibition rA2A.
On to `CCOC(=O)C1=C(C)NC(C)=C(C(=O)OCc2ccccc2)C1/C=C/c1ccccc1` (centres unmarked) [Compound 85], for which the inhibition at 100 µM was 14.4 ± 4%.

Turning to `CCOC(=O)C1=C(C)NC(c2ccc(Cl)cc2)=C(C(=O)OCC)C1/C=C/c1ccccc1` (centres unmarked) [Compound 90], the inhibition at 100 µM is 12 ± 7%.

For `CCOC(=O)C1=C(C)NC(c2ccccc2)=C(C(=O)OCC)C1/C=C/c1ccccc1OC` (centres unmarked) [Compound 94], the inhibition at 100 µM was 17 ± 12%.

As to `CCOC(=O)C1=C(C)NC(c2ccoc2)=C(C(=O)OCC)C1/C=C/c1ccccc1` (centres unmarked) [Compound 92], the inhibition at 100 µM amounted to 35 ± 6%.

In the case of `CCOC(=O)C1=C(C)NC(c2ccc(C)cc2)=C(C(=O)OCC)C1/C=C/c1ccccc1` (centres unmarked) [Compound 88], the inhibition at 100 µM was 37%.

Staying with this assay, now noted: Table 11; 10^-4 M; read-out: displacement of specific binding rA2A.
`CCOC(=O)C1=C(C)NC(c2ccc(OC)cc2)=C(C(=O)OCC)C1/C=C/c1ccccc1` (centres unmarked) [Compound 89]: the inhibition at 100 µM was under 10%.

Take `CCOC(=O)C1=C(C)NC(c2ccccc2)=C(C(=O)OCC)C1/C=C/c1ccccc1[N+](=O)[O-]` (centres unmarked) [Compound 95]: the inhibition at 100 µM is under 10%.

Consider `CCOC(=O)C1=C(C)NC(c2ccsc2)=C(C(=O)OCC)C1/C=C/c1ccccc1` (centres unmarked) [Compound 93], for which the inhibition at 100 µM is under 10%.

The same assay, now with this note: Table 11; [3H]CGS 21680, rat striatal membranes; read-out: Ki rA2A.
As to `CCOC(=O)C1=C(C)NC(C)=C(C(=O)OCC)C1/C=C/c1ccccc1` [Compound 84], the Ki is 9.23 ± 3.6 µM.

Take `CCOC(=O)C1=C(C)NC(c2ccccc2)=C(C(=O)OCc2ccccc2)C1C` (centres unmarked) [Compound 87]: the Ki turned out to be 3.15 µM.

On to `CCOC(=O)c1c(C)nc(-c2ccccc2)c(C(=O)OCC)c1/C=C/c1ccccc1` [A], for which the Ki was 2.6 µM.

Consider `CCOC(=O)C1=C(C)NC(c2ccccc2)=C(C(=O)OCC)C1C=C(c1ccccc1)c1ccccc1` (centres unmarked) [Compound 97], for which the Ki worked out at 8 µM.

Consider `CCOC(=O)C1=C(C)NC(c2ccccc2)=C(C(=O)OCC)C1CC` (centres unmarked) [Compound 86], for which the Ki was 14.5 µM.

The assay is the same for the next values; noted with them: Table 12; 10^-4 M.
As to “3,5-Diethyl 2,6-dimethyl-4-(2-thienyl)-1,4-(±)-dihydropyridine-3,5-dicarboxylate [Compound 114]”, the “% inhibition rA2A” value stood at 36%.

Still in this assay, the particulars now being: Table 12; 10^-4 M; read-out: % inhibition rA2A.
As for `CCNC(=O)C1=C(c2ccccc2)N(COCC)C(C)=C(C(=O)OCC)C1C#Cc1ccccc1` (centres unmarked) [Compound 140], the inhibition at 100 µM was 35%.

On to `CCOC(=O)C1=C(C)NC(c2ccccc2)=C(C(=O)OCC)C1c1cccnc1` (racemic) [Compound 112, 3,5-Diethyl 2-methyl-4-(3-pyridyl)-6-phenyl-1,4-(±)-dihydropridine-3,5-dicarboxylate], for which the inhibition at 100 µM was determined as 40%.

For `CCOC(=O)C1=C(c2ccccc2)NC(C)=C(C(=O)OC[C@H](OC)c2ccccc2)C1C#Cc1ccccc1` (mixture of isomers) [Compound 128, 3-(2-Methoxy-2-phenyl)-ethyl 5-Ethyl 2-methyl-4-phenylethynyl-6-phenyl-1.4-(±)-dihydropyridine-3,5-dicarboxylate], the inhibition at 100 µM stood at 33%.

Regarding `CCOC(=O)C1=C(c2ccccc2)NC(C)=C(C(=O)OC(C)(C)C)C1C#Cc1ccccc1` (racemic) [Compound 133, 3-t-Butyl 5-ethyl 2-methyl-4-phenylethynyl-6-phenyl-1,4-(±)-dihydropyridine-3,5-dicarboxylate], the inhibition at 100 µM turned out to be 20 ± 2%.

With `CCOC(=O)C1=C(C)NC(c2ccccc2)=C(C(=O)SCC)C1C#Cc1ccccc1` (racemic) [Compound 130a, 3-Ethyl 5-thioethyl 2-methyl-4-phenylethynyl-6-phenyl-1,4(±)-dihydropyridine-3,5-dicarboxylate], the inhibition at 100 µM came to 17%.

For `CCOC(=O)C1=C(c2ccccc2)NC2=C(C(=O)CCC2)C1C#Cc1ccccc1` (racemic) [Compound 136, Ethyl 3-oxo-1,4,5,6,7,8-hexahydroquinoline-2-methyl-4-phenylethynyl-6-phenyl-1,4-±-dihydropyridin-5-carboxylate], the inhibition at 100 µM is 22 ± 4%.

As to `CCNC(=O)C1=C(C)NC(c2ccccc2)=C(C(=O)OCC)C1C#Cc1ccccc1` (racemic) [Compound 134, 5-Ethoxycarbonyl-2-methyl-4-phenylethynyl-6-phenyl-1,4-(±)-dihydropyridine-3-carboxylic ethyl amide], the inhibition at 100 µM turned out to be 19 ± 6%.

On to `CCOC(=O)C1=C(C)NC(c2ccccc2)=C(C(=O)OCC)C1C#Cc1ccccc1` (centres unmarked) [Compound 109], for which the inhibition at 100 µM came out at 25 ± 3%.

With `CCOC(=O)C1=C(C)NC(c2ccccc2)=C(C(=O)OCC[Si](C)(C)C)C1C#Cc1ccccc1` (racemic) [Compound 129, 3-Ethyl 5-(2-trimethylsilyl)-ethyl 2-methyl-4-phenylethynyl-6-phenyl-1,4-(±)-dihydropyridine-3,5-dicarboxylate], the inhibition at 100 µM was determined as 18 ± 5%.

As for `CCNC(=O)C1=C(c2ccccc2)NC(C)=C(C(=O)OCC)C1C#Cc1ccccc1` (racemic) [Compound 132, 3-Ethoxycarbonyl-2-methyl-4-phenylethynyl-6-phenyl-1,4(±)-dihydropyridine-5-carboxylic ethyl amide], the inhibition at 100 µM was found to be 47%.

The assay is the same for the next values; noted with them: Table 12; 10^-4 M; read-out: displacement of specific binding rA2A.
On to `CCOC(=O)C1=C(C)NC(c2ccccc2)=C(C(=O)OCC)C1c1ccco1` (centres unmarked) [Compound 115], for which the inhibition at 100 µM was under 10%.

For the molecule `CCOC(=O)C1=C(C)NC(c2ccccc2)=C(C(=O)OCC)C1c1ccccc1` (racemic) [Compound 110, 3,5-Diethyl 2-methyl-4,6-diphenyl-1,4-(±)-dihydropyridine-3,5-dicarboxylate], the inhibition at 100 µM is under 10%.

Still in this assay, the particulars now being: Table 12; [3H]CGS 21680, rat striatal membranes; read-out: Ki rA2A.
As to `CCOC(=O)C1=C(C)NC(c2ccccc2)=C(C(=O)OCC)C1c1ccncc1` (racemic) [Compound 113, 3.5-Diethyl 2-methyl-4-(4-pyridyl)-6-phenyl-1,4(±)-dihydropyridine-3.5-dicarboxylate], the Ki is 44.7 ± 3.7 µM.

As to `CCOC(=O)C1=C(c2ccccc2)NC(C)=C(C(=O)SCC)C1C#Cc1ccccc1` (centres unmarked) [Compound 130b], the Ki was determined as 5.15 ± 1.83 µM.

Staying with this assay, now noted: Table 14; 10^-4 M; read-out: % inhibition rA2A.
As for `CCOC(=O)C1=C(c2ccccc2)NC(C)=C(C(=O)OCC(O)CO)C1C#Cc1ccccc1` (centres unmarked) [Compound 213a], the inhibition at 100 µM came out at 39 ± 8%.

The same assay, now with this note: Table 14; 10^-4 M; read-out: displacement of specific binding rA2A.
On to `CCOC(=O)C1=C(c2ccccc2)NC(C)=C(C(=O)OCC(O)CO)C1C#Cc1ccccc1` (centres unmarked) [Compound 212a], for which the inhibition at 100 µM was under 10%.

The same assay, now with this note: read-out: % inhibition rA2A.
As to `CCOC(=O)C1=C(c2ccccc2)NC(C)=C(C(C)=O)C1C#Cc1ccccc1` (racemic) [Compound 135], the inhibition at 100 µM was determined as 17 ± 7%.

Take `CCOC(=O)C1=C(C)NC(c2ccccc2)=C(C(=O)OCC)C1C#Cc1ccccc1` (racemic) [Compound 98]: the inhibition at 100 µM was 26%.
